# Data from patent US20240270723A1, “SUBSTITUTED HETEROCYCLIC COMPOUNDS” (BRISTOL-MYERS SQUIBB COMPANY, priority 2021, published 2024).
# Key:
# [1] = test system: IFNα-induced pSTAT5 in human whole blood (CD3 positive population); test: IFNα-Induced STAT Phosphorylation in Human Whole Blood; type: cell-based; conditions: 1 h incubation with compound, 1000 U/mL IFNα A/D for 15 min, pSTAT5 in CD3 positive cells, read-out: Human Whole blood IFNa pSTAT5 IC50
# Description: IFNα-Induced STAT Phosphorylation in Human Whole Blood
# After an hour long incubation with compound, human whole blood (drawn with ACD-A as anticoagulant) was stimulated with 1000 U/mL recombinant human IFNα A/D (R&D Systems 11200-2) for 15 min. The stimulation was stopped by adding Fix/Lyse buffer (BD 558049). Cells were stained with a CD3 FITC antibody (BD 555916), washed, and permeabilized on ice using Perm III buffer (BD 558050). Cells were then stained with an Alexa-Fluor 647 pSTAT5 (pY694) antibody (BD 612599) for 60 min prior to analysis on the iQue Plus. The amount of pSTAT5 expression was quantitated by median fluorescence intensity after gating on the CD3 positive population.
# [2] = in vitro; conditions: human, Caco-2, pH 7.4
SMILES,IC50 [1] [nM],"Papp A→B at 2 h, 3 μM [2] [×10⁻⁶ cm/s]","efflux ratio at 2 h, 3 μM [2]"
"[2H]C([2H])([2H])NC(=O)c1nnc(NC(=O)C2CC2)cc1Nc1ncnc(-c2cnn(C)n2)c1OC [Example 1, 6-(cyclopropanecarboxamido)-4-((5-methoxy-6-(2-methyl-2H-1,2,3-triazol-4-yl)pyrimidin-4-yl)amino)-N-(methyl-d3)pyridazine-3-carboxamide]",320,26.1,1.8
"[2H]C([2H])([2H])NC(=O)c1nnc(NC(=O)C2CC2)cc1Nc1ccnc(-c2cnn(C)n2)c1OC [Example 2, 6-(cyclopropanecarboxamido)-4-((3-methoxy-2-(2-methyl-2H-1,2,3-triazol-4-yl)pyridin-4-yl)amino)-N-(methyl-d3)pyridazine-3-carboxamide]",50,12.2,4.9
"[2H]C([2H])([2H])NC(=O)c1nnc(NC(=O)C2CC2)cc1Nc1ccnc(-c2cnn(C3CC3)n2)c1OC [Example 3, 6-(cyclopropanecarboxamido)-4-((2-(2-cyclopropyl-2H-1,2,3-triazol-4-yl)-3-methoxypyridin-4-yl)amino)-N-(methyl-d3)pyridazine-3-carboxamide]",190,9.8,3.3
"[2H]C([2H])([2H])NC(=O)c1nnc(NC(=O)C2CC2)cc1Nc1ccnc(-c2cnn(C3CC3)c2)c1OC [Example 4, 6-(cyclopropanecarboxamido)-4-((2-(1-cyclopropyl-1H-pyrazol-4-yl)-3-methoxypyridin-4-yl)amino)-N-(methyl-d3)pyridazine-3-carboxamide]",350,13.8,2.8
"[2H]C([2H])([2H])NC(=O)c1nnc(NC(=O)C2CC2)cc1Nc1cncc(-c2cnn(C3CC3)n2)c1OC [Example 5, 6-(cyclopropanecarboxamido)-4-((5-(2-cyclopropyl-2H-1,2,3-triazol-4-yl)-4-methoxypyridin-3-yl)amino)-N-(methyl-d3)pyridazine-3-carboxamide]",1090,34.2,1.1
